Measurements published in paper PMC8268575 (International Journal of Molecular Sciences, 2021).
Entries after “also recorded” stand apart in the source; their conditions may differ.

Tests used:
[1] = HUVEC, 10,000 cells per well, in assay medium; supernatant analysed; settings: human, 37 °C, up to 24 h
[2] = HAoEC, 10,000 cells per well, in assay medium; supernatant analysed; settings: human, 37 °C, up to 24 h
[3] = rat plasma; settings: cited from earlier work
[4] = test system: Angiotensin-converting enzyme 2 (ACE2, EC 3.4.17.23); settings: cited from earlier work
[5] = human plasma; settings: cited from earlier work
[6] = test system: PRCP; experiment: in vitro; settings: cited from earlier work
[7] = test system: Recombinant human PREP; experiment: Recombinant human PREP at pH 7.4 (0.1 M potassium phosphate, 1 mM EDTA and 5 mM DTT); settings: up to 1 h
[8] = 24 h cellular supernatant of HUVEC (assay medium), in the absence of cells; settings: human, 37 °C, up to 1 h
[9] = human plasma of healthy volunteers; settings: cited from earlier work
[10] = mouse plasma; settings: cited from earlier work
[11] = test system: ACE2; experiment: ACE2 activity (Mca-Ala-Pro-Lys(Dnp)-OH) after pro-inflammatory stimulation of HAoEC; format: cell-based, human; settings: 16 h, 200 ng/mL LPS, 10 ng/mL TNFα or 5 ng/mL IL-1β, n = 4-6, p = 0.422
Description: (§1) Supplementary Material File S2. ACE2 activity measurement
(§2) HUVEC and HAoEC were seeded in a 6-well plate at a density of 2.5x10^5 cells per well in 2 mL full medium for 24 h. Cells were treated with 200 ng/mL LPS, 10 ng/mL TNFα, 5 ng/mL IL-1β or vehicle control for 16 h. Supernatants were collected and concentrated four times using Centriprep Centrifugal Filter Devices, 30 K (Merck-Millipore). Cells were collected per well and lysed 1 h on ice in 75 µL lysis buffer (1% octyl glucoside, 10 mM EDTA, 70 µg/mL aprotinin, 50 mM Tris pH 8.3).
(§3) ACE2 activity was measured using the substrate Mca-Ala-Pro-Lys(Dnp)-OH (Bachem).
(§4) Samples were incubated with 100 µM of the substrate at pH 6.5 (50 mM MES, 300 mM NaCl, 10 µM Zn Cl2, 0.01% Triton X-100) in a black 96-well plate and ACE2 activity was measured kinetically for 1 h at 37 °C (λex=320 nm, λem=405 nm), using the Infinite 200 microplate reader (Tecan) and the Magellan software was used to process the data. Concentration of the generated Mca-Ala-Pro was determined by means of a standard curve. Specificity was determined by pre-incubating the samples for 15 min with 1 µM of the specific ACE2-inhibitor DX600. The ACE2 activity is expressed as units per gram (U/g) protein for the cell lysate. […] Protein concentrations were determined via the Bradford method with BSA as the standard protein. […]

[12] = test system: PRCP; experiment: PRCP activity (RP-HPLC, Z-Pro-Phe) after pro-inflammatory stimulation of HAoEC; format: cell-based, human; settings: 16 h, 200 ng/mL LPS, 10 ng/mL TNFα or 5 ng/mL IL-1β; for PRCP activity in the cell lysate versus vehicle control: Kruskal-Wallis p = 0.563; for PRCP activity in the supernatant versus vehicle control: n = 4–6
Description: (§5) HUVEC and HAoEC were seeded in a 6-well plate at a density of 2.5 × 10^5 cells per well in 2 mL full medium for 24 h. Subsequently, cells were treated with 200 ng/mL LPS, 10 ng/mL TNFα, 5 ng/mL IL-1β, or vehicle control for 16 h. Subsequently, supernatants were collected and concentrated four times for PRCP activity measurements using Centriprep® Centrifugal Filter Devices, 30 K (Merck-Millipore, Burlington, MA, USA). For PRCP activity measurement, cells were collected per well and lysed 1 h on ice in 75 µL lysis buffer (1% octylglucoside, 10 mM EDTA, 70 µg/mL aprotinin, 50 mM Tris pH 8.3). Appropriate stimulation was confirmed by determining interleukin-6 (IL-6) and interleukin-8 (IL-8) levels in the 16 h aspirate by use of ELISA (Supplementary Materials File S7).
(§6) PRCP activity was measured in the cellular supernatant and cell lysate using a validated high-performance liquid chromatography (HPLC) method as described previously. Ten µL of each sample was incubated in duplicate with 75 µL 8 mM Z-Pro-Phe at pH 5 (0.1 M Natrium Acetate, 10 mM EDTA) for 2 h at 37 °C. To stop the enzymatic reaction, 75 µL stop solution (10% perchloric acid and 20% acetonitrile in purified water) was added and samples were centrifuged at 12,000× g for 10 min at 4 °C. Ten µL of the supernatant was injected into a reversed phase HPLC system (Shimadzu, Kioto, Japan) and the enzymatically formed Z-Pro was determined by its UV absorbance at 210 nm. Quantification was performed by peak height measurements. The PRCP activity is expressed as units per gram (U/g) protein for the cell lysate or units per liter (U/L) for the supernatant. One unit defines the amount of enzyme that hydrolyses 1 μmol of substrate per minute. Protein concentrations were determined via the Bradford method with bovine serum albumin as the standard protein. Statistical analyses were performed using SPSS software version 27 (IBM) and graphs were designed using Graphpad Prism 9 software. Differences in PRCP activity in the cell lysate and supernatant between control and stimulated cells were evaluated by Kruskal-Wallis and Mann-Whitney U-tests. Manual Bonferroni-correction was assessed for multiple testing based on relevant pairwise comparisons. Significant results are indicated with an asterisk (* p < 0.05, ** p < 0.01).

[13] = test system: ACE2; experiment: ACE2 activity (Mca-Ala-Pro-Lys(Dnp)-OH) after pro-inflammatory stimulation of HUVEC; format: cell-based, human; settings: 16 h, 200 ng/mL LPS, 10 ng/mL TNFα or 5 ng/mL IL-1β, n = 4-6, p = 0.098
Description: as §1, §2, §3, §4

[14] = test system: PRCP; experiment: PRCP activity (RP-HPLC, Z-Pro-Phe) after pro-inflammatory stimulation of HUVEC; format: cell-based, human; settings: 16 h, 200 ng/mL LPS, 10 ng/mL TNFα or 5 ng/mL IL-1β; for PRCP activity in the cell lysate versus vehicle control: Kruskal-Wallis p = 0.066; for PRCP activity in the supernatant versus vehicle control: n = 4–6
Description: as §5, §6

[15] = test system: HAoEC; experiment: Substrate cleavage in HAoEC, supernatant analysed by MALDI-TOF/TOF; format: in vitro ADME, human; settings: all inhibitor-treated HAoEC (1 µM compound 8o, 1 µM DX600 or both) compared with control, 100 µM (pyr)-apelin-13, n = 4
Description: (§7) The experiment was independently conducted 4 times. […] The supernatants were desalted and concentrated by use of C18 ZipTips (Merck-Millipore, Burlington, MA, USA) and eluted directly on the MALDI target in 70% acetonitrile/0.1% TFA. Subsequently, a MALDI matrix solution of 2.5 mg/mL α-cyano-4-hydroxycinnamic acid in 70% acetonitrile/0.1% TFA was applied on each spot, air-dried at room temperature, and the target was introduced into a 4800 plus MALDI TOF/TOF^TM Analyzer. Mass spectrometry (MS) spectra (mass range: 600–4000 Da) were acquired in positive reflector mode with a laser intensity of 5000. To confirm the identity of the most important peptides, MS/MS spectra were generated by use of collision induced dissociation with a laser intensity of 5500. Calibration was done during analysis using the 6-peptide mixture (AB Sciex, Framingham, MA, USA). Mass spectra were generated by use of the 4000 Series Explorer and analyzed by mMas. […] The ratio of the peak intensity of the cleaved substrate to the peak intensity of the intact substrate is an indication for the C-terminal cleavage of the substrates. To check for additional cleavage sites, a search for other product peaks was completed. Statistical analysis was performed using SPSS software version 27 (IBM). Two-way ANOVA analysis was conducted to examine the effect of the two independent variables (treatment duration and treatment option) on the ratio of the peak intensities.

[16] = test system: HUVEC; experiment: Substrate cleavage in HUVEC, supernatant analysed by MALDI-TOF/TOF; format: in vitro ADME, human; settings: PRCP-inhibited (1 µM compound 8o) or PRCP/ACE2-inhibited HUVEC compared with control or ACE2-inhibited (1 µM DX600) HUVEC, 100 µM (pyr)-apelin-13, n = 4
Description: as §7

[17] = molecular target: T1, recombinant human PREP (Homo sapiens, UniProt P48147); experiment: Cleavage by recombinant PREP, MALDI-TOF/TOF; settings: pH 7.4 (0.1 M potassium phosphate, 1 mM EDTA, 5 mM DTT), 100 µM substrate, 0 s to 1 h
T1 sequence (P48147 1-710): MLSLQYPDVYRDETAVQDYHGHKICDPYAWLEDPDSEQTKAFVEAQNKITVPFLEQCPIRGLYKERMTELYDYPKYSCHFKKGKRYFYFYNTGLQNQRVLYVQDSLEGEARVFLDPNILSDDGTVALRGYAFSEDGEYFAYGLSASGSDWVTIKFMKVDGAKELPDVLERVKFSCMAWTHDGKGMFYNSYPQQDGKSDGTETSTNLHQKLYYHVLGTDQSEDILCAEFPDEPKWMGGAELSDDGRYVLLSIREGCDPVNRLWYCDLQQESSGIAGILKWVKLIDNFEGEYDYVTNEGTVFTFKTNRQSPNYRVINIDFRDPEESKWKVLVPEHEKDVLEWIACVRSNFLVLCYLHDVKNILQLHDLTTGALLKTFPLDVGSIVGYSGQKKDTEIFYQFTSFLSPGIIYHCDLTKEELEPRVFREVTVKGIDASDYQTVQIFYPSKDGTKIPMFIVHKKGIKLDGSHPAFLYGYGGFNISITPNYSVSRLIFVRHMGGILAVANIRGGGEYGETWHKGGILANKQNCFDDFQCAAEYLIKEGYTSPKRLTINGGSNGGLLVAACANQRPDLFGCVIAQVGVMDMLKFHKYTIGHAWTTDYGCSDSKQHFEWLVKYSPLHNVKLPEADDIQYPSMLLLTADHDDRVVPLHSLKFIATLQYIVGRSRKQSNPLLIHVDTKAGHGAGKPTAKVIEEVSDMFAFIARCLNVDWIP
Description: Supplementary Material File S3. Cleavage by recombinant PREP
Recombinant human PREP, expressed in BL21 (DE3) cells as previously described, was […]
(Laboratory for Medicinal Chemistry, University of Antwerp) or vehicle control at pH 7.4 (0.1 M potassium phosphate, 1 mM EDTA and 5 mM DTT). 100 μM substrate ((pyr)-apelin-13, (pyr)-apelin-13(1-12), Ang II or α-MSH 1-13) or vehicle control (PBS) was added. The reaction was stopped by acidification (pH<3) with 0.1% TFA after different time periods (0 s, 30 s, 1 min, 5 min, 15 min, 30 min or 1 h) and samples were stored at -80 °C.
A search for product peaks of the different peptides was conducted.
1. Van Elzen, R.; Schoenmakers, E.; Brandt, I.; Van Der Veken, P.; Lambeir, A.M.
Ligand-induced conformational changes in prolyl oligopeptidase: A kinetic approach.

Row | Compound | cleaved bond [1] | cleaved bond [2] | ACE2 activity in the cell lysate versus vehicle control [11] | PRCP activity in the cell lysate versus vehicle control [12] | PRCP activity in the supernatant versus vehicle control [12] | ACE2 activity in the cell lysate versus vehicle control [13] | PRCP activity in the cell lysate versus vehicle control [14] | PRCP activity in the supernatant versus vehicle control [14] | further results
1 | Ac-SYSMEHFRWGKPV-NH₂ | P12-V13 | P12-V13 |  |  |  |  |  |  | fragment found [1]: α-MSH 1-10; fragment found [2]: α-MSH 1-10
2 | pERPRLSHKGPMPF | P12-Phe13, 24 h | P12-Phe13, 8 h; also recorded: Ser6-His7, 8 h |  |  |  |  |  |  | cleaved bond [3]: Leu5-Ser6, first_seen; also recorded: Ser6-His7; cleaved bond [4]: P12-Phe13; cleaved bond [5]: Leu5-Ser6, first_seen; also recorded: Ser6-His7; cleaved bond [6]: P12-Phe13; not cleaved [7]: Only the peaks corresponding with the intact peptides could be observed; cleaved bond [8]: P12-Phe13, 1 h; not cleaved [1]: In HUVEC, this product could not be detected; fragment found [9]: (pyr)-apelin-13(1-6); cleaved bond [10]: Leu5-Ser6, first_seen; also recorded: Ser6-His7
3 | TNFα |  |  | No difference | no difference | increase in PRCP activity | No difference | no difference | increase in PRCP activity | 
4 | IL-1β: pro-inflammatory stimulus, 5 ng/mL |  |  | No difference | no difference | increase in PRCP activity | No difference | no difference | increase in PRCP activity | 
5 | CSCC[C@H](NC(=O)[C@@H]1CCCN1C(=O)CNC(=O)[C@H](CCCCN)NC(=O)[C@H](Cc1c[nH]cn1)NC(=O)[C@H](CO)NC(=O)[C@H](CC(C)C)NC(=O)[C@H](CCCNC(=N)N)NC(=O)[C@@H]1CCCN1C(=O)[C@H](CCCNC(=N)N)NC(=O)[C@@H]1CCC(=O)N1)C(=O)N1CCC[C@H]1C(=O)O [(pyr)-apelin-13(1–12)] |  |  |  |  |  |  |  |  | (pyr)-apelin-13(1–12) observed in supernatant after 24 h [15]: significantly less; (pyr)-apelin-13(1–12) detected in supernatant after 24 h [16]: Significantly less; Cleavage by recombinant human PREP [17]: did not cleave
